# Measured values published in patent publication US20100330098A1, “METHODS TO REGULATE GLUCOSE METABOLISM” (priority 2009, published 2010).
# “Also recorded” adds a separate entry of the source.
# Key:
# Type in all cases: in vivo, mouse
# [1] = test system: C57Bl/6 and SCID mice; test: Ad libidum and fasting blood glucose levels in wild-type mice; settings: 6 weeks of twice-weekly s.c. VEGF Trap vs human Fc (FIG. 6)
# [2] = test system: IRS-2; test: Western blot of liver extracts: hepatic IRS-2 protein; settings: livers from VEGF Trap-treated mice (FIG. 8)
# Source text: (§1) FIG. 4 is a Western blot indicating increased hepatic insulin signaling following single intravenous injections of 5×10^8 pfu Ad Flt1 (VEGF inhibition) or Ad Fc (negative control) into adult C57Bl/6 mice. […] IR-β: b-subunit of the IR. * P≦0.05; n=5 animals each.
# (§2) FIG. 8 is a digital image of a Western blot analysis.
# [3] = test system: insulin receptor (IR) signaling intermediates Akt, GSK-3β, FOXO1; test: Western blot of liver extracts: phosphorylation of insulin receptor signaling intermediates; settings: livers from VEGF Trap-treated mice (FIG. 8)
# Source text: as §1, §2
# [4] = test system: G6PC and PEPCK; test: Quantitative PCR of hepatic gluconeogenic gene expression; settings: SCID mice, six weeks twice-weekly s.c. 25 mg/kg VEGF Trap vs human Fc (FIG. 9)
# [5] = test system: C57Bl/6 mice; test: Euglycemic, hyperinsulinemic clamp analyses; settings: adult male C57Bl/6 mice
# Source text: Adult male C57Bl/6 mice (n=8 or 9) were used. * P=0.01 ** P=0.0001 for control vs. treatment.
# [6] = test system: HIF-2α; test: Immunoblots of hepatic HIF-2α; settings: C57Bl/6 mice, 14 days after single injection of 5×10^8 pfu Ad Flt1 vs Ad Fc (FIG. 11)
# [7] = test system: db/db mice; test: Ad libidum (fed) and fasting blood glucose levels in db/db mice; settings: long-term twice-weekly s.c. 25 mg/kg VEGF Trap vs hFc (FIG. 28)
# Source text: FIG. 25 is a graph showing ad libidum and fasting blood glucose levels in mice. * P≦0.05 in the indicated treatment groups compared to control.
# FIG. 28 is a graph showing ad libidum blood glucose levels. * P<0.04 between VEGF Trap- and hFc-treated db/db mice at the indicated time points.
# FIG. 33 is a graph showing the fed and fasting blood glucose levels in db/db mice.
# Db/db model. Db/db or wild-type mice received single intravenous injection of adenoviruses encoding Ad Flt (soluble VEGF receptor), Ad Fc (control antibody Fc fragment), VEGF Trap or control human Fc fragment, with or without adenovirus encoding shRNA against HIF-2α, or scrambled control shRNA. Adenovirus gives preferential and quantitative hepatocyte infection, a robust maneuver for achieving hepatic gene knockdown (Canettieri et al., (2005) Cell Metab. 2: 331; Taniguchi et al., (2005) J. Clin. Invest. 115: 718).
# (§3) FIGS. 25-27 illustrate that VEGF inhibition and HIF-2α activation reverse the diabetic phenotype of db/db mice. The data of […] are from 10 week-old female db/db mice injected with 5×10^8 pfu of the indicated viruses.
# FIGS. 28-29 illustrate that the chronic administration of VEGF Trap protein improves hepatic glucose tolerance in db/db mice. 10 week-old female db/db and db/+ mice (n=5) were treated with twice-weekly subcutaneous injections of 25 mg/kg VEGF Trap or control hFc. […]
# [8] = test system: db/db mice; test: Glucose tolerance test in db/db mice; settings: twice-weekly s.c. 25 mg/kg VEGF Trap vs hFc, 0.5 g/kg glucose i.p. (FIGS. 29-30)
# Experimental: FIG. 26 is a graph showing the results of glucose tolerance tests. 7 d after adenoviral infection, mice were given 0.5 g/kg glucose intraperitoneally and blood glucose levels were measured.
# FIG. 29 is a graph showing the results of a glucose tolerance test in db/db mice. Mice were given 0.5 g/kg glucose intraperitoneally and blood glucose levels were measured. * P<0.03 between treatment groups at the indicated time points. Values are mean±s.e.m.
# FIG. 30 is a graph showing the results of a glucose tolerance test in db/db mice. Mice were given 0.5 g/kg glucose intraperitoneally and blood glucose levels were measured. * P<0.03 between treatment groups at the indicated time points. Values are mean±s.e.m.
# FIG. 32 is a graph showing the results of a glucose tolerance test in db/db mice. Mice were given 0.5 g/kg glucose intraperitoneally and blood glucose levels were measured. * P<0.02 between treatment groups at the indicated time points. Values are mean±s.e.m.
# as §3
# FIGS. 28-29 illustrate that the chronic administration of VEGF Trap protein improves hepatic glucose tolerance in db/db mice. […]
# [9] = test system: db/db mice; test: Plasma insulin levels by ELISA in db/db mice; settings: VEGF Trap vs hFc, ELISA (FIG. 31)
# Experimental: FIG. 31 is a graph showing plasma insulin levels as determined by ELISA. * P=0.003 between VEGF Trap- and hFc-treated db/db mice. The hyperinsulinemia of db/db mice is corrected by VEGF Trap treatment.
# FIGS. 28-29 illustrate that the chronic administration of VEGF Trap protein improves hepatic glucose tolerance in db/db mice. 10 week-old female db/db and db/+ mice (n=5) were treated with twice-weekly subcutaneous injections of 25 mg/kg VEGF Trap or control hFc.
substance,measurement,setting,value
"VEGF Trap: Ig domain 2 from VEGFR1 fused to Ig domain 3 from VEGFR2, fused to the Fc domain of IgG1 (Regeneron)",blood glucose levels,[1],lowered
same,liver IRS-2 levels,[2],higher levels
same,liver phospho-AKT levels,[3],higher levels
same,hepatic expression of G6PC and PEPCK,[4],significantly reduced
same,glucose infusion rate to maintain euglycemia,[5]; hyperinsulinemic euglycemic clamp (FIG. 7A),higher glucose infusion rate
same,insulin suppression of hepatic glucose production (insulin action in the liver),[5]; hyperinsulinemic euglycemic clamp (FIG. 7B),increased insulin action in the liver
same,hepatic HIF-2α stabilization,[6],increased stabilization
same,ad libidum blood glucose levels (hyperglycemia),[7],sustained correction
same,glucose tolerance (GTT),[8],improved glucose tolerance; also recorded: improves
same,plasma insulin levels (hyperinsulinemia),[9],sustained correction; also recorded: corrected
